Reference: the NIST ThermoML archive (doi:10.1016/j.jct.2015.08.021)

Tests used:
[1] = 298.15 K; 101.33 kPa; Liquid; Vibrating tube method
[2] = refractive index (Na D-line) (dimensionless); conditions: 101.3 kPa, Liquid, Standard Abbe refractometry
[3] = relative permittivity at various frequencies (dimensionless); conditions: 101.3 kPa, Liquid, Frequency=0.1 MHz, Coaxial cylinder capacitor
[4] = refractive index (Na D-line) (dimensionless); xn = mol fraction of the nth substance listed; conditions: 101.3 kPa, Liquid, Standard Abbe refractometry
[5] = relative permittivity at various frequencies (dimensionless); xn = mol fraction of the nth substance listed; conditions: 101.3 kPa, Liquid, Frequency=0.1 MHz, Coaxial cylinder capacitor

OCCCCO [1,4-butanediol]
Conditions	mass density [kg/m3]
[1]	1013.4

Conditions	refractive index, 298.15 K	refractive index, 308.15 K	refractive index, 318.15 K	relative permittivity, 298.15 K	relative permittivity, 308.15 K	relative permittivity, 318.15 K
[2]	1.4445	1.4417	1.4393	–	–	–
[3]	–	–	–	31.587	29.482	27.203

OCCCCO [1,4-butanediol] + CC(C)CCO
Conditions	refractive index, 298.15 K	refractive index, 308.15 K	refractive index, 318.15 K	relative permittivity, 298.15 K	relative permittivity, 308.15 K	relative permittivity, 318.15 K
[4], x1 = 0.101	1.4088	1.4052	1.4014	–	–	–
[4], x1 = 0.2	1.4123	1.4087	1.4055	–	–	–
[4], x1 = 0.299	1.4165	1.4122	1.4093	–	–	–
[4], x1 = 0.4	1.4203	1.4166	1.4137	–	–	–
[4], x1 = 0.5	1.4244	1.4207	1.4175	–	–	–
[4], x1 = 0.6	1.4291	1.4252	1.4222	–	–	–
[4], x1 = 0.699	1.4325	1.4295	1.426	–	–	–
[4], x1 = 0.801	1.4372	1.4336	1.4309	–	–	–
[4], x1 = 0.9	1.4409	1.4376	1.4353	–	–	–
[4], x1 = 1	1.4445	1.4417	1.4393	–	–	–
[5], x1 = 0.101	–	–	–	15.856	14.411	13.099
[5], x1 = 0.2	–	–	–	16.963	15.522	14.197
[5], x1 = 0.299	–	–	–	18.26	16.765	15.4
[5], x1 = 0.4	–	–	–	19.772	18.22	16.76
[5], x1 = 0.5	–	–	–	21.409	19.78	18.225
[5], x1 = 0.6	–	–	–	23.176	21.499	19.794
[5], x1 = 0.699	–	–	–	25.066	23.351	21.52
[5], x1 = 0.801	–	–	–	27.119	25.335	23.403
[5], x1 = 0.9	–	–	–	29.28	27.371	25.287
[5], x1 = 1	–	–	–	31.587	29.482	27.203

OCCCCO [1,4-butanediol] + CCCCCO
Conditions	refractive index, 298.15 K	refractive index, 308.15 K	refractive index, 318.15 K	relative permittivity, 298.15 K	relative permittivity, 308.15 K	relative permittivity, 318.15 K
[4], x1 = 0.1	1.4118	1.4081	1.4051	–	–	–
[4], x1 = 0.2	1.4147	1.4114	1.4089	–	–	–
[4], x1 = 0.3	1.4185	1.4149	1.4119	–	–	–
[4], x1 = 0.403	1.4226	1.4193	1.4166	–	–	–
[4], x1 = 0.501	1.4256	1.4234	1.4201	–	–	–
[4], x1 = 0.601	1.4302	1.4267	1.4242	–	–	–
[4], x1 = 0.701	1.4334	1.431	1.428	–	–	–
[4], x1 = 0.8	1.4375	1.4345	1.4324	–	–	–
[4], x1 = 0.9	1.441	1.4382	1.4358	–	–	–
[4], x1 = 1	1.4445	1.4417	1.4393	–	–	–
[5], x1 = 0.1	–	–	–	16.037	14.699	13.391
[5], x1 = 0.2	–	–	–	17.171	15.827	14.452
[5], x1 = 0.3	–	–	–	18.467	17.054	15.646
[5], x1 = 0.403	–	–	–	19.924	18.471	17.026
[5], x1 = 0.501	–	–	–	21.49	19.97	18.416
[5], x1 = 0.601	–	–	–	23.245	21.632	19.971
[5], x1 = 0.701	–	–	–	25.108	23.459	21.616
[5], x1 = 0.8	–	–	–	27.105	25.339	23.393
[5], x1 = 0.9	–	–	–	29.265	27.356	25.251
[5], x1 = 1	–	–	–	31.587	29.482	27.203

C1COCCO1 [1,4-dioxane]
Conditions	mass density [kg/m3]
[1]	1027.86

Conditions	refractive index, 298.15 K	refractive index, 308.15 K	refractive index, 318.15 K	relative permittivity, 298.15 K	relative permittivity, 308.15 K	relative permittivity, 318.15 K
[2]	1.4202	1.4144	1.4086	–	–	–
[3]	–	–	–	2.229	2.209	2.187

C1COCCO1 [1,4-dioxane] + CC(C)CCO
x2 = 0
Conditions	refractive index, 298.15 K	refractive index, 308.15 K	refractive index, 318.15 K	relative permittivity, 298.15 K	relative permittivity, 308.15 K	relative permittivity, 318.15 K
[4]	1.4202	1.4144	1.4086	–	–	–
[5]	–	–	–	2.229	2.209	2.187

C1COCCO1 [1,4-dioxane] + CCCCCO
Conditions	refractive index, 298.15 K	refractive index, 308.15 K	refractive index, 318.15 K	relative permittivity, 298.15 K	relative permittivity, 308.15 K	relative permittivity, 318.15 K
[4], x2 = 0	1.4202	1.4144	1.4086	–	–	–
[4], x2 = 0.1	1.4181	1.4121	1.407	–	–	–
[4], x2 = 0.2	1.4161	1.4103	1.4055	–	–	–
[4], x2 = 0.3	1.4144	1.4088	1.4042	–	–	–
[4], x2 = 0.4	1.4128	1.4074	1.403	–	–	–
[4], x2 = 0.501	1.4114	1.4063	1.4021	–	–	–
[4], x2 = 0.599	1.4104	1.4055	1.4014	–	–	–
[4], x2 = 0.699	1.4096	1.4048	1.4008	–	–	–
[4], x2 = 0.801	1.409	1.4044	1.4004	–	–	–
[4], x2 = 0.9	1.4086	1.4042	1.4002	–	–	–
[5], x2 = 0	–	–	–	2.229	2.209	2.187
[5], x2 = 0.1	–	–	–	2.657	2.587	2.527
[5], x2 = 0.2	–	–	–	3.255	3.124	3.024
[5], x2 = 0.3	–	–	–	4.016	3.77	3.63
[5], x2 = 0.4	–	–	–	4.941	4.63	4.402
[5], x2 = 0.501	–	–	–	6.082	5.652	5.34
[5], x2 = 0.599	–	–	–	7.387	6.781	6.332
[5], x2 = 0.699	–	–	–	8.915	8.18	7.529
[5], x2 = 0.801	–	–	–	10.714	9.793	8.951
[5], x2 = 0.9	–	–	–	12.796	11.622	10.578

CC(C)CCO [3-methylbutan-1-ol]
Conditions	mass density [kg/m3]
[1]	807.16

Conditions	refractive index, 298.15 K	refractive index, 308.15 K	refractive index, 318.15 K	relative permittivity, 298.15 K	relative permittivity, 308.15 K	relative permittivity, 318.15 K
[2]	1.4048	1.4011	1.3973	–	–	–
[3]	–	–	–	14.93	13.402	12.051

CC(C)CCO [3-methylbutan-1-ol] + C1COCCO1
Conditions	refractive index, 298.15 K	refractive index, 308.15 K	refractive index, 318.15 K	relative permittivity, 298.15 K	relative permittivity, 308.15 K	relative permittivity, 318.15 K
[4], x1 = 0.1	1.4177	1.4125	1.4069	–	–	–
[4], x1 = 0.203	1.4151	1.4105	1.4054	–	–	–
[4], x1 = 0.301	1.4133	1.4088	1.4039	–	–	–
[4], x1 = 0.4	1.4114	1.4072	1.4026	–	–	–
[4], x1 = 0.5	1.4098	1.4057	1.4012	–	–	–
[4], x1 = 0.601	1.4084	1.4045	1.4001	–	–	–
[4], x1 = 0.699	1.4072	1.4034	1.3992	–	–	–
[4], x1 = 0.8	1.4063	1.4023	1.3984	–	–	–
[4], x1 = 0.899	1.4054	1.4013	1.3978	–	–	–
[4], x1 = 1	1.4048	1.4011	1.3973	–	–	–
[5], x1 = 0.1	–	–	–	2.694	2.634	2.57
[5], x1 = 0.203	–	–	–	3.292	3.168	3.055
[5], x1 = 0.301	–	–	–	4.014	3.804	3.632
[5], x1 = 0.4	–	–	–	4.91	4.629	4.376
[5], x1 = 0.5	–	–	–	6.024	5.611	5.239
[5], x1 = 0.601	–	–	–	7.327	6.743	6.232
[5], x1 = 0.699	–	–	–	8.82	8.037	7.343
[5], x1 = 0.8	–	–	–	10.64	9.655	8.702
[5], x1 = 0.899	–	–	–	12.649	11.434	10.315
[5], x1 = 1	–	–	–	14.93	13.402	12.051

CC(C)CCO [3-methylbutan-1-ol] + OCCCCO
x2 = 0
Conditions	refractive index, 298.15 K	refractive index, 308.15 K	refractive index, 318.15 K	relative permittivity, 298.15 K	relative permittivity, 308.15 K	relative permittivity, 318.15 K
[4]	1.4048	1.4011	1.3973	–	–	–
[5]	–	–	–	14.93	13.402	12.051

CCCCCO [pentan-1-ol]
Conditions	mass density [kg/m3]
[1]	811.1

Conditions	refractive index, 298.15 K	refractive index, 308.15 K	refractive index, 318.15 K	relative permittivity, 298.15 K	relative permittivity, 308.15 K	relative permittivity, 318.15 K
[2]	1.4082	1.4041	1.4001	–	–	–
[3]	–	–	–	15.11	13.72	12.391

CCCCCO [pentan-1-ol] + C1COCCO1
x1 = 1
Conditions	refractive index, 298.15 K	refractive index, 308.15 K	refractive index, 318.15 K	relative permittivity, 298.15 K	relative permittivity, 308.15 K	relative permittivity, 318.15 K
[4]	1.4082	1.4041	1.4001	–	–	–
[5]	–	–	–	15.11	13.72	12.391

CCCCCO [pentan-1-ol] + OCCCCO
x2 = 0
Conditions	refractive index, 298.15 K	refractive index, 308.15 K	refractive index, 318.15 K	relative permittivity, 298.15 K	relative permittivity, 308.15 K	relative permittivity, 318.15 K
[4]	1.4082	1.4041	1.4001	–	–	–
[5]	–	–	–	15.11	13.72	12.391
